According to US20080153824A1, “Method for Controlling Fungal Diseases in Leguminous Plants” (BASF Aktiengesellschaft, priority 2004, published 2008):

Test system: soybean rust
Test: Seed dressing trial, activity against soybean rust
Format: in vivo, soybean rust on soybean plants (cultivar BRS 133)
Settings: soybean seeds cultivar BRS 133 treated with 1000 g orysastrobin/100 kg of seed (SC, 250 g/l, liquid dressing); inoculated 3 weeks after sowing; assessed 11 days after inoculation; untreated-seed plants 79% infected
Procedure: Seed dressing trial, activity against soybean rust
Soybean seeds of the cultivar BRS 133 were treated with 1000 g of orysastrobin/100 kg of seed, formulated as SC with 250 g of active compound per liter, as liquid dressing, then sown into pots and cultivated in a greenhouse at about 22° C. 3 weeks after sowing, the plants were inoculated with soybean rust, incubated at 100% relative atmospheric humidity for 24 hours and then again cultivated in the greenhouse. At the time of inoculation, the first pair of leaves and one subsequent leaf had developed. The infection of the leaves was assessed 11 days after the inoculation.

CNC(=O)/C(=N/OC)c1ccccc1CO/N=C(C)/C(=N/OC)C(C)=NOC (stereo in doubt) [orysastrobin, (2E)-2-(methoxyimino)-2-{2-[(3E,5E,6E)-5-(methoxyimino)-4,6-dimethyl-2,8-dioxa-3,7-diazanona-3,6-dien-1-yl]phenyl}-N-methylacetamide]
total infection of the leaves: less than 1%
